Laboratory results published in US9796706B2, “Inhibitors of Jun N-terminal kinase” (IMAGO PHARMACEUTICALS, INC., priority 2009, dated 2017).

How the values were obtained:
Format in all cases: biochemical
Settings in all cases: procedures of Example 14 (TR-FRET)
[1] = target: JNK1 (Homo sapiens (Human), UniProt P45983); assay: JNK1 TR-FRET kinase assay (Example 14)
Method: (§1) 14.3. Active JNK 1, 2 and 3 TR-FRET Assay
(§2) (1) Assay buffer #1 with 0.0025% Tween and 1 mM DTT was prepared using JNK buffer stock solution.
(§3) (2) Assay buffer #2 with 0.025% BSA was prepared using the assay buffer #1.
(§4) (3) Test compound solution preparation: 5× compound solution was prepared using assay buffer #1 with 5% DMSO. The compound solution (10 μl/well) was added to a 384-well plate (Corning, Cat No. 3654).
(§5) (4) aJNK1, 2 or 3 preparation: aJNK stock (100 μg/ml) at −80° C. was thawed on ice and an aJNK (1.6 ng/ml) solution was prepared using assay buffer #2. The aJNK solution (20 μl/well) was added to the plate and the plate was shaken. The enzyme was incubated with the compound at RT for 10 min. (5) ATP/substrate solution preparation: ATP and substrate stocks were thawed on ice. 2.5×ATP/substrate (e.g., 25 μM or 2.5 mM ATP/50 nM EPIW-1) was prepared using assay buffer #1. The ATP/substrate (20 μl/well) was added to the plate and the plate was shaken. The plate was incubated at RT for 15 min. Note: In an exemplary assay, the final ATP concentration was about 1 mM. (6) EDTA preparation: 30 mM EDTA was prepared using 0.5M EDTA stock and assay buffer #1. The EDTA (10 μl/well) was added to the plate to quench the enzyme reaction and the plate was shaken well. (7) Detection reagent preparation: Eu-63 and SA-XL stocks were thawed on ice. 4× Eu-63/SA-XL (2 nM Eu-63/9.4 nM SA-XL) was prepared using JNK detection buffer. The Eu-63/SA-XL solution (20 μl/well) was added to the plate and the plate was shaken. The plate was incubated at RT for 1 hr before reading the plate on LJL using ratiometric method named HTRF.
(§6) 14.4. Coupled JNK 1, 2 and 3 TR-FRET Assay
(§7) (1) Assay buffer with 0.0025% Tween, 0.01% BSA, and 1 mM DTT was prepared using JNK buffer stock solution.
(§8) (2) Test compound solution preparation: 5× compound solution, including EDTA background, was prepared using assay buffer with 5% DMSO. The compound solution (10 μl/well) was added to a 384-well plate (Corning, Cat No. 3654).
(§9) (3) uJNK1,2, or 3 activation reaction preparation: uJNK activation solution was prepared using assay buffer (1.6 ng/ml MKK4, 1.6 ng/ml MKK7, 16 ng/ml uJNK, and 20 uM ATP final). The uJNK activation solution (35 μl/well) was added to the plate, the plate was shaken, and the reaction mixture was incubated with compound at 30° C. for 60 min. (4) c-Jun substrate solution preparation: 50 nM EPIW-1, c-Jun peptide, was prepared using assay buffer (15 nM final). The EPIW-1 solution (15 μl/well) was added to the plate, the plate was shaken and incubated at 30° C. for 60 min. (5) EDTA preparation: 30 mM EDTA was prepared using 0.5M EDTA stock and assay buffer. The EDTA (10 μl/well) was added to the plate to quench the enzyme reaction and the plate was shaken well. (6) Detection reagent preparation: Eu-73 and SA-XL stocks were thawed on ice. 4× Eu-73/SA-XL (2 nM Eu-73/9.4 nM SA-XL) were prepared using JNK detection buffer. The Eu-73/SA-XL solution (20 μl/well) was added to the plate. The plate was shaken and incubated at RT for 1 hr before reading the plate on LJL using ratiometric method named HTRF.

[2] = target: JNK2 (Homo sapiens (Human), UniProt P45984); assay: JNK2 TR-FRET kinase assay (Example 14)
JNK2, sequence (P45984 whole entry, species assumed): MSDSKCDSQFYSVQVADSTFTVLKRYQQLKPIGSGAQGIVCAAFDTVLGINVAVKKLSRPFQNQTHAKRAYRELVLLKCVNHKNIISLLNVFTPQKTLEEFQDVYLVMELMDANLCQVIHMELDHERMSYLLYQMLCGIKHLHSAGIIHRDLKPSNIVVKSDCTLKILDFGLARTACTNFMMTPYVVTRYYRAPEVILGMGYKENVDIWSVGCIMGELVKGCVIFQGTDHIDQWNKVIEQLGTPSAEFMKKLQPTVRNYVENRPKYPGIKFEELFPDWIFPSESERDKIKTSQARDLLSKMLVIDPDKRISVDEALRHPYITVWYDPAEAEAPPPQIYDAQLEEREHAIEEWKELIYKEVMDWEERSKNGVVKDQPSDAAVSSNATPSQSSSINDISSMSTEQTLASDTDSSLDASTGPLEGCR
Method: as §1, §2, §3, §4, §5, §6, §7, §8, §9

[3] = target: JNK3 (Homo sapiens (Human), UniProt P53779); assay: JNK3 TR-FRET kinase assay (Example 14)
JNK3, sequence (P53779 whole entry, species assumed): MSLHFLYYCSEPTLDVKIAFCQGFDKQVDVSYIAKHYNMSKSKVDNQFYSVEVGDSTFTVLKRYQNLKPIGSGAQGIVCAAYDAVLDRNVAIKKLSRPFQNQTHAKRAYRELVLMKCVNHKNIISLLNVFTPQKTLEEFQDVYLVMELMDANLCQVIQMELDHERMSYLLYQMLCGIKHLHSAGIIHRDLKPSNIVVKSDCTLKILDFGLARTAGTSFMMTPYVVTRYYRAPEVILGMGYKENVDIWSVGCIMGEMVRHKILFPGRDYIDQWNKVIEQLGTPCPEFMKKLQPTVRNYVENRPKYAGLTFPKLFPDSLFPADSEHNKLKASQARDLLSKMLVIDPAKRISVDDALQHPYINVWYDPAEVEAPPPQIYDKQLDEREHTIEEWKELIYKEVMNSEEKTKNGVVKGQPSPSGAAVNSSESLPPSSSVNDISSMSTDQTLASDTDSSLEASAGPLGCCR
Method: as §1, §2, §3, §4, §5, §6, §7, §8, §9

JNK1, sequence (P45983 other isoform, or with tags, fused parts or gaps isoform P45983-2, species assumed): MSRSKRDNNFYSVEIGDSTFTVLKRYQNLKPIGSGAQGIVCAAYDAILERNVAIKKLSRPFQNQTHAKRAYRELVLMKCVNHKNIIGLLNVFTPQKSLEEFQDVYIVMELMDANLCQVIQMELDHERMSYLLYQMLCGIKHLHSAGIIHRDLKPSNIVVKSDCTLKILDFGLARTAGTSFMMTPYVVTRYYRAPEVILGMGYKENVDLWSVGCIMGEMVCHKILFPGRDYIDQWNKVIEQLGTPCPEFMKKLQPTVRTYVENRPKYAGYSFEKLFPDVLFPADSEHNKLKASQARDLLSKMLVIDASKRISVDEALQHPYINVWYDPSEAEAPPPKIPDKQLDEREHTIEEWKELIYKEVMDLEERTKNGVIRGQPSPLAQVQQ

Structure (SMILES) | IC50 [1] [µM] | IC50 [2] [µM] | IC50 [3] [µM]
Cc1n[nH]c(-c2sccc2NC(=O)Cc2ccc3c(c2)OCCO3)n1 [2-(2,3-dihydrobenzo[b][1,4]dioxin-6-yl)-N-(2-(3-methyl-1H-1,2,4-triazol-5-yl)thiophen-3-yl)acetamide] | 0.1 to 10 | 0.1 to 10 | 0.1 to 10
O=C(Cn1c(=O)ccc2cnccc21)Nc1ccsc1-c1cscn1 [2-(2-oxo-1,6-naphthyridin-1(2H)-yl)-N-(2-(thiazol-4-yl)thiophen-3-yl)acetamide] | < 0.1 | 0.1 to 10 | 0.1 to 10
O=C(CN1C(=O)CCc2cnccc21)Nc1ccsc1-c1cscn1 [2-(2-oxo-3,4-dihydro-1,6-naphthyridin-1(2H)-yl)-N-(2-(thiazol-4-yl)thiophen-3-yl)acetamide] | 0.1 to 10 | 0.1 to 10 | 0.1 to 10
O=C(CN1C(=O)CCc2ccccc21)Nc1ccsc1-c1cscn1 [2-(2-oxo-3,4-dihydroquinolin-1(2H)-yl)-N-(2-(thiazol-4-yl)thiophen-3-yl)acetamide] | 0.1 to 10 | 0.1 to 10 | 0.1 to 10
O=C(Cn1c(=O)ccc2cc(C(F)(F)F)ccc21)Nc1ccsc1-c1cscn1 [2-(2-oxo-6-(trifluoromethyl)quinolin-1(2H)-yl)-N-(2-(thiazol-4-yl)thiophen-3-yl)acetamide] | < 0.1 | 0.1 to 10 | < 0.1
O=C(Cc1cccc2ccccc12)Nc1ccsc1-c1ccccn1 [2-(2-pyridyl)-3-(1-naphthylacetylamino)thiophene] | – | – | 0.1 to 10
O=C(Cc1ccc(OCCCN2CCCCC2)cc1)Nc1ccsc1-c1cscn1 [2-(4-(3-(piperidin-1-yl)propoxy)phenyl)-N-(2-(thiazol-4-yl)thiophen-3-yl)acetamide] | 0.1 to 10 | 0.1 to 10 | 0.1 to 10
COc1ccc(CC(=O)Nc2ccsc2-c2cn(C)cn2)cc1 [2-(4-methoxyphenyl)-N-(2-(1-methyl-1H-imidazol-4-yl)thiophen-3-yl)acetamide] | > 10 | > 50 | > 10
COc1ccc(CC(=O)Nc2ccsc2N2CCOC2=O)cc1 [2-(4-methoxyphenyl)-N-(2-(2-oxooxazolidin-3-yl)thiophen-3-yl)acetamide] | > 50 | > 50 | > 10
COc1ccc(CC(=O)Nc2ccsc2-c2nc(C3CCCO3)n[nH]2)cc1 (centres unmarked) [2-(4-methoxyphenyl)-N-(2-(3-(tetrahydrofuran-2-yl)-1H-1,2,4-triazol-5-yl)thiophen-3-yl)acetamide] | 0.1 to 10 | 0.1 to 10 | 0.1 to 10
COc1ccc(CC(=O)Nc2ccsc2-c2nc(C(F)(F)F)n[nH]2)cc1 [2-(4-methoxyphenyl)-N-(2-(3-(trifluoromethyl)-1H-1,2,4-triazol-5-yl)thiophen-3-yl)acetamide] | 0.1 to 10 | > 10 | 0.1 to 10
COc1ccc(CC(=O)Nc2ccsc2-n2cc(C)cn2)cc1 [2-(4-methoxyphenyl)-N-(2-(4-methyl-1H-pyrazol-1-yl)thiophen-3-yl)acetamide] | > 10 | > 10 | > 10
COc1ccc(CC(=O)Nc2ccsc2-c2ncco2)cc1 [2-(4-methoxyphenyl)-N-(2-(oxazol-2-yl)thiophen-3-yl)acetamide] | – | > 10 | –
Cn1ncnc1-c1ncsc1NC(=O)Cc1cccc2cnccc12 [2-(isoquinolin-5-yl)-N-(4-(1-methyl-1H-1,2,4-triazol-5-yl)thiazol-5-yl)acetamide] | – | 0.1 to 10 | –
O=C(Cc1ccc2c(c1)OCCO2)Nc1ccsc1-c1ncn[nH]1 [N-(2-(1H-1,2,4-triazol-5-yl)thiophen-3-yl)-2-(2,3-dihydrobenzo[b][1,4]dioxin-6-yl)acetamide] | – | 0.1 to 10 | –
O=C(Cc1cccc2ccccc12)Nc1ccsc1-c1cc[nH]n1 [N-(2-(1H-pyrazol-3-yl)thiophen-3-yl)-2-(naphthalen-1-yl)acetamide] | – | > 50 | –
COc1ccc(CC(=O)Nc2ccsc2-c2nc(N)n[nH]2)cc1 [N-(2-(3-amino-1H-1,2,4-triazol-5-yl)thiophen-3-yl)-2-(4-methoxyphenyl)acetamide] | – | 0.1 to 10 | –
Cc1noc(-c2sccc2NC(=O)Cc2cccc3ccccc23)n1 [N-(2-(3-methyl-1,2,4-oxadiazol-5-yl)thiophen-3-yl)-2-(naphthalen-1-yl)acetamide] | – | > 50 | –
Cc1n[nH]c(-c2sccc2NC(=O)Cc2ccc(N3CCCC3=O)cc2)n1 [N-(2-(3-methyl-1H-1,2,4-triazol-5-yl)thiophen-3-yl)-2-(4-(2-oxopyrrolidin-1-yl)phenyl)acetamide] | – | 0.1 to 10 | –
Cc1cc(-c2sccc2NC(=O)Cc2cccc3ccccc23)n[nH]1 [N-(2-(5-methyl-1H-pyrazol-3-yl)thiophen-3-yl)-2-(naphthalen-1-yl)acetamide] | – | > 50 | –
Cc1csc(NC(=O)CN2C(=O)CCc3ccccc32)c1-c1ncn[nH]1 [N-(4-methyl-3-(1H-1,2,4-triazol-5-yl)thiophen-2-yl)-2-(2-oxo-3,4-dihydroquinolin-1(2H)-yl)acetamide] | < 0.1 | – | < 0.1

Second part, the compound after the results:

IC50 [1] [µM] | IC50 [2] [µM] | IC50 [3] [µM] | Structure (SMILES)
0.1 to 10 | 0.1 to 10 | 0.1 to 10 | Cc1csc(NC(=O)Cc2ccc(OCCn3ccnc3)cc2)c1-c1ncn[nH]1 [2-(4-(2-(1H-imidazol-1-yl)ethoxy)phenyl)-N-(4-methyl-3-(1H-1,2,4-triazol-5-yl)thiophen-2-yl)acetamide]
> 10 | > 50 | > 10 | COc1ccc(CC(=O)Nc2ccsc2-c2c[nH]c(C)n2)cc1 [2-(4-methoxyphenyl)-N-(2-(2-methyl-1H-imidazol-4-yl)thiophen-3-yl)acetamide]
0.1 to 10 | > 50 | > 10 | COc1ccc(CC(=O)Nc2ccsc2-c2nc(-c3ccncc3)n[nH]2)cc1 [2-(4-methoxyphenyl)-N-(2-(3-(pyridin-4-yl)-1H-1,2,4-triazol-5-yl)thiophen-3-yl)acetamide]
– | 0.1 to 10 | – | COc1ccc(CC(=O)Nc2ccsc2-c2nc(C)n[nH]2)cc1 [2-(4-methoxyphenyl)-N-(2-(3-methyl-1H-1,2,4-triazol-5-yl)thiophen-3-yl)acetamide]
> 50 | > 50 | > 50 | COc1ccc(CC(=O)Nc2ccsc2-n2cnc(C)c2)cc1 [2-(4-methoxyphenyl)-N-(2-(4-methyl-1H-imidazol-1-yl)thiophen-3-yl)acetamide]
0.1 to 10 | > 50 | 0.1 to 10 | COc1ccc(CC(=O)Nc2ccsc2-c2nnc(C)o2)cc1 [2-(4-methoxyphenyl)-N-(2-(5-methyl-1,3,4-oxadiazol-2-yl)thiophen-3-yl)acetamide]
0.1 to 10 | 0.1 to 10 | 0.1 to 10 | COc1ccc(CC(=O)Nc2ccsc2-c2cnccn2)cc1 [2-(4-methoxyphenyl)-N-(2-(pyrazin-2-yl)thiophen-3-yl)acetamide]
– | > 50 | – | COc1ccc(CC(=O)Nc2sccc2-c2nn[nH]n2)cc1 [N-(3-(2H-tetrazol-5-yl)thiophen-2-yl)-2-(4-methoxyphenyl)-acetamide]
– | 0.1 to 10 | 0.1 to 10 | O=C(Cc1cccc2cccnc12)Nc1scc(Br)c1-c1ncn[nH]1 [N-(4-bromo-3-(1H-1,2,4-triazol-5-yl)thiophen-2-yl)-2-(quinolin-8-yl)acetamide]
– | 0.1 to 10 | – | Cc1csc(NC(=O)Cc2cccc3ncccc23)c1-c1ncn[nH]1 [N-(4-methyl-3-(1H-1,2,4-triazol-5-yl)thiophen-2-yl)-2-(quinolin-5-yl)acetamide]
– | – | 0.1 to 10 | Cc1nnc(-c2c(C)csc2NC(=O)Cc2ccc(-c3ccncc3)cc2)[nH]1 [N-(4-methyl-3-(5-methyl-4H-1,2,4-triazol-3-yl)thiophen-2-yl)-2-(4-(pyridin-4-yl)phenyl)acetamide]
